Laboratory results as given in USRE39485E1 (Aesgen, Inc., priority 1993, dated 2007).
Where “and” joins values, the source holds several entries; their conditions need not be identical. Equal values may be shown once.

What was measured:
[1] = tested on: adults undergoing allogeneic bone marrow transplantation for hematologic malignancies; details: cited from earlier work
[2] = 0.57 g/kg/day in parenteral nutrition solutions for 5 days; cited from earlier work
[3] = oral dose of 0.3 g/kg; cited from earlier work
[4] = tested on: rats given abdominal radiotherapy; details: glutamine group vs glycine enriched group; cited from earlier work
[5] = tested on: animals given methotrexate; details: administered after methotrexate; cited from earlier work
[6] = tested on: patients experiencing mucositis of the oropharynx following a course of chemotherapy; experiment: Oral glutamine swish and swallow trial in patients with chemotherapy induced oral mucositis; format: in vivo, human; set-up: key to Maximum Grade of Mucositis: 0: no mucositis; 1: painful mucositis not necessitating a change in oral intake; 2A: painful mucositis restricting intake to soft foods; 2B: painful mucositis restricting oral intake to liquids; 3: mucositis preventing oral intake
Text: Patients experiencing mucositis of the oropharynx following a course of chemotherapy were offered the opportunity to enter this study if no other clinical parameters precluded receiving the same chemotherapy doses during the next course of treatment. […] Other carriers, flavor enhancers, gums, and suspending agents known in the art may be employed. The suspension was stored in a refrigerator during use for a maximum of 1 month. […] The severity of mucositis was graded as: 0, no mucositis; 1, painful mucositis not necessitating a change in oral intake; 2A, painful mucositis restricting intake to soft foods; 2B, painful mucositis restricting oral intake to liquids; and 3, mucositis preventing oral intake (CALGB criteria). Maximum grade of mucositis and total number of days of mucositis were compared by the paired t-test. All patients gave written informed consent, and the trial was approved by the Institutional Review Board of the University of Minnesota. Ten adults, 5 men and 5 women, were entered in the study. […] One patient with AIDS and Kaposi's sarcoma was treated with doxorubicin by constant iv infusion over 5 days with bolus DTIC and vincristine. One patient with breast cancer was treated with doxorubicin, cyclophosphamide, and 5-FU, iv bolus.

[7] = tested on: rats treated with methotrexate; details: glutamine supplementation of an elemental diet; cited from earlier work
[8] = parenteral glutamine supplementation vs none

NC(=O)CC[C@H](N)C(=O)O [glutamine, L-glutamine]
severity of oral mucositis (stomatitis) ([1]; high dosage of intravenous glutamine vs no glutamine): no difference
episodes of clinical infections [1, 8]: fewer episodes of clinical infections
median hospitalization [1, 8]: shorter median hospitalization
nitrogen balance [1, 8]: better nitrogen balance
tolerability [2]: well tolerated
clinical toxicity or measurable toxic metabolites (ammonia or glutamate) [3]: no evidence of clinical toxicity or generation of measurable toxic metabolites
mucosal structure [4]: more normal mucosal structure
survival rate [4]: higher survival rate
survival rate, enteral vs parenteral supplementation [5]: better survival rate
Subjective Improvement of Mucositis ([6]; Chemotherapy + Glutamine 2 gm/m^2 BID vs previous identical chemotherapy without glutamine, one line per patient (1-10)): Yes (9×) and No
Maximum Grade of Mucositis ([6]; chemotherapy + glutamine, L-glutamine 2 g/m^2 swish and swallow twice daily, one line per patient (1-10), CALGB criteria): 1 (7×) and 0 (3×)
toxicity of the glutamine ([6]; oral glutamine 2 g/m^2 twice daily, ambulatory patients): absence of any detectable toxicity
patients in whom the maximum grade of mucositis remained the same (grade 1) ([6]; with glutamine supplementation): 2/10
patients in whom the total number of days of mucositis decreased ([6]; with glutamine supplementation): 9/10
median score of maximum grade of mucositis ([6]; with glutamine supplementation (2 without), p=0.001): 1
total number of days of mucositis, mean (SEM) ([6]; with glutamine supplementation (10.1±1.2 without), p=0.001): 3.8 ± 1.0 days
patients in whom the maximum grade of mucositis decreased ([6]; with glutamine supplementation vs previous course, p=0.001): 8/10
patients in whom glutamine allowed chemotherapy doses that would otherwise have had to be reduced due to mucositis ([6]; with the addition of glutamine): 8/10
patients who felt that the mucositis was less severe ([6]; with the addition of glutamine): Nine of the 10
incidence of bacteremia [7]: lower incidence of bacteremia
mortality [7]: less mortaility
mucosal weight of the jejunum and colon [7]: increased mucosal weight of the jejunum and colon
survival [7]: longer survival
weight loss [7]: less weight loss
